In patent US12275731B2, “Azaindole inhibitors of wild-type and mutant forms of LRRK2” (DANA-FARBER CANCER INSTITUTE, INC., priority 2018, dated 2025):

Legend:
Assay in all cases: KinomeScan profiling
Format in all cases: binding
[1] = biological target: T1, ASK1 (Homo sapiens, UniProt Q99683); conditions: ASK1, 1 μM; read-out: % control
T1 construct: purchased KinomeScan®
T1 sequence (Q99683 1-1374): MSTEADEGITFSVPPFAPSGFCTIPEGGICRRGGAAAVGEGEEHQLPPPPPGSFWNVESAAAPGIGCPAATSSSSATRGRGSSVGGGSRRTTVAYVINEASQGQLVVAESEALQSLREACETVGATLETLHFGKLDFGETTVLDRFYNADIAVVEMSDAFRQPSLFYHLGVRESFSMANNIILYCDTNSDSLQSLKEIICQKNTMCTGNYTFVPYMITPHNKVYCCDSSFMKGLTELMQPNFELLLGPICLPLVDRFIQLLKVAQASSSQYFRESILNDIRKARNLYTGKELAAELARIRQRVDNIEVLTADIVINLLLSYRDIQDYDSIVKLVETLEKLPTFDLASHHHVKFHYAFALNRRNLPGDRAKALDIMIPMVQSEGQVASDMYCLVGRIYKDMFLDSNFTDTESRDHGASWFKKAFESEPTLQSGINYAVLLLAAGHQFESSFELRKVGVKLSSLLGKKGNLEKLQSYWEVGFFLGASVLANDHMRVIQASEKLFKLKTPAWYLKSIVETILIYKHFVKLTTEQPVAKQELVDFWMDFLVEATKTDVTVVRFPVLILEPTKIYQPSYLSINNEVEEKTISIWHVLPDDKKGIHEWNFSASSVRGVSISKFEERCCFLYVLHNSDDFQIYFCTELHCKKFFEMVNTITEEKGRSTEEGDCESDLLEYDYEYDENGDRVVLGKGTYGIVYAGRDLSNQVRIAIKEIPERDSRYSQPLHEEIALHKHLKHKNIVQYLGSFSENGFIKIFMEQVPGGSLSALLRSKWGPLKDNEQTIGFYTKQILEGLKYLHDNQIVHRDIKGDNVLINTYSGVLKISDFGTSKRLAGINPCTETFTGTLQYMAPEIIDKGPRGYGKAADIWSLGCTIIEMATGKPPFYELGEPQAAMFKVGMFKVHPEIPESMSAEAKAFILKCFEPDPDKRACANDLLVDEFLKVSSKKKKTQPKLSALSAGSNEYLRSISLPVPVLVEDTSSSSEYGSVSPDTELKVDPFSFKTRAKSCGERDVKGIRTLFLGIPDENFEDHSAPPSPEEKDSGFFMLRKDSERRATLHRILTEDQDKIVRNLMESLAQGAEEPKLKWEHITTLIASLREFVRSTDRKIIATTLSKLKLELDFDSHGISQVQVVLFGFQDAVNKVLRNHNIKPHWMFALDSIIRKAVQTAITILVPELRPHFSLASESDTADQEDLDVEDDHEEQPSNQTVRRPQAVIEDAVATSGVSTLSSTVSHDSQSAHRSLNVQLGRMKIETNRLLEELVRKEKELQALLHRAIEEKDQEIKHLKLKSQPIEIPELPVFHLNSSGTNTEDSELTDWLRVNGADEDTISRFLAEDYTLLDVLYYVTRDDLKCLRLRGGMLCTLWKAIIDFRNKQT
How it was run: (§1)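 1 μM cpd in DMSO; 468-kinase panel; readout RLU. % ctrl = (cpd − pos ctrl)/(neg ctrl − pos ctrl) ×100. Pos ctrl = 0%, DMSO = 100%. Hit cut-off <35%.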

[2] = biological target: T2, BRAF (Homo sapiens, UniProt P15056); conditions: read-out: % control
T2 construct: purchased KinomeScan®
T2 sequence (P15056 whole entry): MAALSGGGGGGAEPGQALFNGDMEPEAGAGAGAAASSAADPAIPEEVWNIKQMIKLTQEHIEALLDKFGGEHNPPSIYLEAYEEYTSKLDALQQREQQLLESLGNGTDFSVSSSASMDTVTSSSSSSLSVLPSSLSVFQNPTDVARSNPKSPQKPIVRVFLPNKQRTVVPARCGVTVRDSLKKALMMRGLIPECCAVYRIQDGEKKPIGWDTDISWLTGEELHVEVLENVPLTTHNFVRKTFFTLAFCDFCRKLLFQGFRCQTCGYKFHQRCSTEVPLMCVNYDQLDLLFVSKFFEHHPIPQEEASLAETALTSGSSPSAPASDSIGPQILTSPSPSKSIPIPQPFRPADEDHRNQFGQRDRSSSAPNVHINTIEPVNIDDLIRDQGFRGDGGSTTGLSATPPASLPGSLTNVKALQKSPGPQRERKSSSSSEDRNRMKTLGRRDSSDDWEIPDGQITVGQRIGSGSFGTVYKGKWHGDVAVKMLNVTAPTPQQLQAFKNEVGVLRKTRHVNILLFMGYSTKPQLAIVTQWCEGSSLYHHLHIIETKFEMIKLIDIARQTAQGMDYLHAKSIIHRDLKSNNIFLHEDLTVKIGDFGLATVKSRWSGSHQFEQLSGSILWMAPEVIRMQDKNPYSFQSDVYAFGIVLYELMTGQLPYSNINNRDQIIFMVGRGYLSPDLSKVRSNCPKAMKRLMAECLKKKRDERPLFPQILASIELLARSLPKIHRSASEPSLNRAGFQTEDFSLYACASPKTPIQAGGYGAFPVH
How it was run: as §1

[3] = biological target: T3, PIK3CD (Homo sapiens, UniProt O00329); conditions: read-out: % control
T3 construct: purchased KinomeScan® (panel service)
T3 sequence (O00329 1-1044): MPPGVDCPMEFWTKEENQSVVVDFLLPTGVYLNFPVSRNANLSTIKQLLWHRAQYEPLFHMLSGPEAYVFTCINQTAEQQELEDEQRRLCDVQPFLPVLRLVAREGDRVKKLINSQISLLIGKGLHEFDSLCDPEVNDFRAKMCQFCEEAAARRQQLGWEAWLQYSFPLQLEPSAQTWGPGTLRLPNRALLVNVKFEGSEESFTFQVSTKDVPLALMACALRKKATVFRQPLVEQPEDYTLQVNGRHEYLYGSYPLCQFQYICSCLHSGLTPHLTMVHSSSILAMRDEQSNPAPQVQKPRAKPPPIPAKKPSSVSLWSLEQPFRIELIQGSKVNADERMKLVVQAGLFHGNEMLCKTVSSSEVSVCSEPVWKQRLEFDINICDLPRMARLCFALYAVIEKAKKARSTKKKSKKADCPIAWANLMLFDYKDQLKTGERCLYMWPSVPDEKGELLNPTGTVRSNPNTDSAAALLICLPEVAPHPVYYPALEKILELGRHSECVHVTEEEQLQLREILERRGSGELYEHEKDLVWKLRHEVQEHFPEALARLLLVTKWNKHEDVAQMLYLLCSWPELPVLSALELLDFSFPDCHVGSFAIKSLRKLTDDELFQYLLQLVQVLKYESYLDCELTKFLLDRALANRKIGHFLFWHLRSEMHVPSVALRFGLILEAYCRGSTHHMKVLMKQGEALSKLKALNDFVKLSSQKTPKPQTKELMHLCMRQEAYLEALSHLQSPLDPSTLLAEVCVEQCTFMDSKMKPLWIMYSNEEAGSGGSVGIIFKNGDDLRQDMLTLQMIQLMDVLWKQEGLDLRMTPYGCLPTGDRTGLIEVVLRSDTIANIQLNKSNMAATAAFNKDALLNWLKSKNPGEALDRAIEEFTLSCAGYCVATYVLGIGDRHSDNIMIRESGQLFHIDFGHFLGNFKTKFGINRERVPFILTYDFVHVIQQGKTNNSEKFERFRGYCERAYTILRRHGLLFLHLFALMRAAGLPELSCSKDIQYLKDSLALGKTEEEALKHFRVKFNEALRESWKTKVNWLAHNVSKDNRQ
How it was run: as §1

Structure (SMILES) | remaining binding at 1 µM [1] | remaining binding at 1 µM [2] | remaining binding at 1 µM [3]
O=C(c1ccc(-c2cnc3[nH]cc(Cl)c3c2NC2CCCC2)cc1)N1CCC(N2CCOCC2)CC1 [Compound 101, (4-(3-chloro-4-(cyclopentylamino)-1H-pyrrolo[2,3-b]pyridin-5-yl)phenyl)(4-morpholinopiperidin-1-yl)methanone] | 94% | 84% | 100%
CNc1c(-c2cnn([C@H]3CCN(C(C)=O)C[C@@H]3F)c2)cnc2[nH]cc(Cl)c12 [Compound 77, 1-((3S,4S)-4-(4-(3-chloro-4-(methylamino)-1H-pyrrolo[2,3-b]pyridin-5-yl)-1H-pyrazol-1-yl)-3-fluoropiperidin-1-yl)ethan-1-one] | 4.3% | 91% | 85%
CNc1c(-c2ccc(C(=O)N3CCC(N4CCOCC4)CC3)cc2)cnc2[nH]cc(Cl)c12 [Compound 96, (4-(3-chloro-4-(methylamino)-1H-pyrrolo[2,3-b]pyridin-5-yl)phenyl)(4-morpholinopiperidin-1-yl)methanone] | 5.9% | 90% | 84%
